From US9241991B2, “Agents, compositions, and methods for treating pruritus and related skin conditions” (The Brigham and Women's Hospital, Inc., priority 2010, dated 2016)

Assays:
[1] = target: T1, TLR7 (Homo sapiens, UniProt Q9NYK1); conditions: cited from earlier work
T1 construct: host or cells: human skin, clinical use (Madan et al. 2010)
T1 sequence (Q9NYK1 27-1049): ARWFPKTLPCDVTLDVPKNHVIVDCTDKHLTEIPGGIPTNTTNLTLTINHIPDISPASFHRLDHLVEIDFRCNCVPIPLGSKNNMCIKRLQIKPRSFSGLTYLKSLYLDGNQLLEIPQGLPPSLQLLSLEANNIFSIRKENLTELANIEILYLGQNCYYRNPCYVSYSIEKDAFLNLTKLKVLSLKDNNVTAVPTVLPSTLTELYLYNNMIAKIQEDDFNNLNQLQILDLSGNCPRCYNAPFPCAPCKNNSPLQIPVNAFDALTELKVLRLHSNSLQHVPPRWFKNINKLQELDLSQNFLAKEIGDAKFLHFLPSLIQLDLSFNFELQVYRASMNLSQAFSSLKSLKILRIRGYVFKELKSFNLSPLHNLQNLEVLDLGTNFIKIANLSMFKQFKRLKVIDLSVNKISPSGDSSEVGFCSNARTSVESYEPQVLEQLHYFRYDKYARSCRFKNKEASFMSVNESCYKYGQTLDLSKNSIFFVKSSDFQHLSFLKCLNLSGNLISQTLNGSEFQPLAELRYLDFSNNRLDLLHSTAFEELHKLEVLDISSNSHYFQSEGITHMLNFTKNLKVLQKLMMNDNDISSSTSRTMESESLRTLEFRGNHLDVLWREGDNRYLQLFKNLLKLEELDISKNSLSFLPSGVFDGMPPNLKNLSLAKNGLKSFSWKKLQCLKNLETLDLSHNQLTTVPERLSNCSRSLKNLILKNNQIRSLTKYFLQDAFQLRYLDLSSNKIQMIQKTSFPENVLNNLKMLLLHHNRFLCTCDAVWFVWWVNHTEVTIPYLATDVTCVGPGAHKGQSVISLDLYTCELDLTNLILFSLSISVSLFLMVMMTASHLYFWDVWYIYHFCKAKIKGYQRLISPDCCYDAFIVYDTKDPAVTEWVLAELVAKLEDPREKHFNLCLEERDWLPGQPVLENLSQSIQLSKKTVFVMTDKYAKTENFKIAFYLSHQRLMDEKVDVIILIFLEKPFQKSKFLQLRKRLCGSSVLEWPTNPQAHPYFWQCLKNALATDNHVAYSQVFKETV

[2] = target: T2, TLR7 (Mus musculus, UniProt P58681); conditions: mice; cited from earlier work
T2 construct: We found functional TLR7 receptors in small-size DRG neurons; from tissue; host or cells: small DRG neurons of mice; nape and cheek skin of live mice (C57BL/6J background, CD1)
T2 sequence (P58681 27-1050): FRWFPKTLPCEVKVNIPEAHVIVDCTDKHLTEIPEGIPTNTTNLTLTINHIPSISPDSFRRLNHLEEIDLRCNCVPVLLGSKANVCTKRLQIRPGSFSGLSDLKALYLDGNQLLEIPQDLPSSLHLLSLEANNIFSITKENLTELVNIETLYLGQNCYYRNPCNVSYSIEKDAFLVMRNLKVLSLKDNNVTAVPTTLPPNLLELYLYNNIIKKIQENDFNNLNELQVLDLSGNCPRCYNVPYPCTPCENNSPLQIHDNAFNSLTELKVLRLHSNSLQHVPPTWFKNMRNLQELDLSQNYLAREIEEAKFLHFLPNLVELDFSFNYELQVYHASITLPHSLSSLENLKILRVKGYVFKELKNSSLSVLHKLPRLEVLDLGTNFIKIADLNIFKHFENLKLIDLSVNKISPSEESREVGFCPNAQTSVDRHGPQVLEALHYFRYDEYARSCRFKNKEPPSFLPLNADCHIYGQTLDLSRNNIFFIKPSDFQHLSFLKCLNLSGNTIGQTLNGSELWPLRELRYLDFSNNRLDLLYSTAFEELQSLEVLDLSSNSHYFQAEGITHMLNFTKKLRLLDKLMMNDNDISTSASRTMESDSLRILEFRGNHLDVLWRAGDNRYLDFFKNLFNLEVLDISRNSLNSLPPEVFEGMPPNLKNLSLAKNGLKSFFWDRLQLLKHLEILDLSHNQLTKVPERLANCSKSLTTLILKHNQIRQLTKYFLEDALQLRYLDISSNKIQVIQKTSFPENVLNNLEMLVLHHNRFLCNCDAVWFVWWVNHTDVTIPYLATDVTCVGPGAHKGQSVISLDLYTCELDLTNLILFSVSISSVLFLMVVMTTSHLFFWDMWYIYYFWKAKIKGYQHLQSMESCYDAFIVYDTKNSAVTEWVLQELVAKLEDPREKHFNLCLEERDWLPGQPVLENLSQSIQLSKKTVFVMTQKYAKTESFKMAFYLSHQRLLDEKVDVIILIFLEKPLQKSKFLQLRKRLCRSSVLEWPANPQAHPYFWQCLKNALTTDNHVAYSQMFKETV

[3] = test system: mice; assay: Imiquimod-induced scratching in Trpv1-/- and mast cell-deficient SASH mice; assay type: in vivo
[4] = target: T2, TLR7; assay: Cheek model of itch versus pain, TLR7 ligands; assay type: in vivo, mice; conditions: 20 μg intradermal into the cheek
Protocol: To distinguish itch and pain responses simultaneously, we used the cheek model by injection of chemical into cheek of mice (8). After brief anesthesia with isoflurane, we shaved mice on cheeks (approx. 5×8 mm area) two days before experiments. On the day of experiment, we injected 10 μl of reagent (50 μg compound 48/80 or 100 μg chloroquine) into the cheek and counted the number of wipes and the number of scratches for 30 min. We only counted those unilateral wipes with the forelimb that were not part of grooming behavior. One scratch was defined as a lifting of the hind paw toward the injection site on the cheek and then returning the paw to the floor or to the mouth.
To further investigate a unique role of TLR7 in itch versus pain, we used a recently developed “cheek model” of itch (Shimada, S. G. & LaMotte, R. H. Pain 139, 681-687 (2008)).

[5] = test system: TLR7; assay: Scratches after intradermal injection in the nape of the neck, WT and Tlr7-/- mice; assay type: in vivo
Text: We next evaluated whether TLR7 plays a role in itch sensation. We counted the number of scratches (bouts) by a hindpaw of mouse following intradermal injection of pruritogenic agents in the nape of the neck.

[6] = target: T2, TLR7; assay: Patch clamp recording of inward currents and action potentials in small DRG neurons, TLR7 ligands; assay type: cell-based, mice
[7] = test system: TLR7; assay: IMQ-induced scratches after intrathecal TLR7 siRNA; assay type: in vivo; conditions: siRNA 4 μg intrathecal with PEI 48 and 24 h before IMQ (20 mg, 20 μg elsewhere in the source), CD1 mice, vs NT siRNA; P<0.05
Protocol: (§1) 4 μg siRNA targeting TLR7 ([…] (SEQ ID NO:8)) (synthesized by Dharmacon, On-target Plus) or a non-targeting control siRNA ([…] (SEQ ID NO:9)) was administered intrathecallly to wild type (CD1) mice at 24 and 48 hours before the mice received an injection of IMQ ([…]). siRNA was dissolved in RNase-free water at 1 μg/μl as stock solution and mixed with polyethyleneimine (PEI, Fermentas Inc. Hanover, USA, 0.18 μl of PEI solution for 1 μg of siRNA), 10 minutes before injection, to increase cell membrane penetration and reduce the degradation. PEI was dissolved in 5% glucose. After behavioral testing, DRG tissues were collected for quantitative PCR analysis.

[8] = test system: TLR7 mRNA; assay: TLR7 mRNA levels in cervical DRGs by quantitative PCR after siRNA; assay type: in vivo, mice; conditions: siRNA 4 μg intrathecal, P<0.05
Protocol: as §1

Compound | pruritus on topical application [1] | skin inflammation [2] | reduction in imiquimod-induced scratching in mast cell-deficient SASH mice ([3]; SASH mice vs WT control) [%] | imiquimod-induced scratching in Trpv1-/- mice ([3]; Trpv1-/- vs WT control) | itch-like scratching in cheek model [4] | pain-indicative wiping in cheek model [4] | dose response curve of scratching ([5]; intradermal injection, nape) | scratches in Tlr7-/- mice versus WT ([5]; intradermal, 100 μg) | neurons from WT mice that respond ([6]; 500 μM, small DRG neurons) | action potentials in DRG neurons ([6]; WT but not Tlr7-/- mice, 500 μM) | response of neurons from Tlr7-/- mice ([6]; all 10 neurons) | inward currents in DRG neurons ([6]; capsaicin-responsive DRG neurons of WT but not Tlr7-/- mice, imiquimod 20-500 μM) | IMQ induced scratches [7] | TLR7 mRNA levels in cervical DRGs [8]
CC(C)Cn1cnc2c(N)nc3ccccc3c21 [imiquimod] | frequently elicits pruritus | induces psoriasis-like skin inflammation | 28 | remained unaltered | elicited itch-like scratching | not pain-indicative wiping behavior | inverted-U-shaped dose response curve | reduced | Eight out of 17 | induced action potentials | fail to respond | dose-dependent inward currents | – | –
TLR7 siRNA: siRNA targeting TLR7 (CCUUACACUAUUUCCGAUA, SEQ ID NO:8), synthesized by Dharmacon, On-target Plus (chemistry not given here) | – | – | – | – | – | – | – | – | – | – | – | – | significantly reduced | reduced levels
